Experimental data: US11959916B2, “Method, system, and program for supplying immunodynamics-related information” (priority 2017, dated 2024)

Tested on: eosinophil
Experiment: Eosinophil count in peripheral blood of the prostate cancer subject
Conditions: Claritin in addition to Allegra from July 1, 2016

CC(C)(C(=O)O)c1ccc(C(O)CCCN2CCC(C(O)(c3ccccc3)c3ccccc3)CC2)cc1 (stereo not shown) [Allegra, fexofenadine] was tested, and the “eosinophil count in peripheral blood, change in words” value was “started to decrease”.
